ChEMBL document CHEMBL1153227, “2,3,5-Trisubstituted pyridines as selective AKT inhibitors. Part II: Improved drug-like properties and kinase selectivity from azaindazoles” (Bioorg Med Chem Lett, 2010)
Converted amounts (≈) assume the structure as drawn. The source made the active and inactive calls. No cut-off for these calls is given here.

Columns and labels:
[1] = target: RAC-alpha serine/threonine-protein kinase (Homo sapiens, UniProt P31749); test: Inhibition of AKT1
[2] = target: Cytochrome P450 3A4 (Homo sapiens, UniProt P08684); test: Inhibition of CYP3A4; type: ADME
[3] = Protein binding in SCID mouse plasma; type: ADME, cell-free; conditions: read-out: PPB (converted)
[4] = target: RAC-gamma serine/threonine-protein kinase (Homo sapiens, UniProt Q9Y243); test: Inhibition of AKT3
[5] = Solubility of the compound; type: physicochemical
[6] = system: HFF; test: Cytotoxicity against HFF cells; type: cell-based; conditions: Homo sapiens
[7] = system: BT-474; test: Cytotoxicity against human BT474 cells; type: functional, cell-based
[8] = system: LNCaP; test: Cytotoxicity against human LNCAP cells; type: functional, cell-based
[9] = target: RAC-beta serine/threonine-protein kinase (Homo sapiens, UniProt P31751); test: Inhibition of AKT2
[10] = target: Rho-associated protein kinase 1 (Homo sapiens, UniProt Q13464); test: Inhibition of ROCK1
[11] = target: Cytochrome P450 2C19 (Homo sapiens, UniProt P33261); test: Inhibition of CYP2C19; type: ADME
[12] = target: Serine/threonine-protein kinase PAK 1 (Homo sapiens, UniProt Q13153); test: Inhibition of PAK1
[13] = target: Ribosomal protein S6 kinase beta-1 (Homo sapiens, UniProt P23443); test: Inhibition of P70S6K
[14] = Inhibition of RSK
[15] = Inhibition of PKA
[16] = target: T1, Cytochrome P450 1A2 (Homo sapiens, UniProt P05177); test: Inhibition of CYP1A2; type: ADME
T1 sequence (P05177 whole entry): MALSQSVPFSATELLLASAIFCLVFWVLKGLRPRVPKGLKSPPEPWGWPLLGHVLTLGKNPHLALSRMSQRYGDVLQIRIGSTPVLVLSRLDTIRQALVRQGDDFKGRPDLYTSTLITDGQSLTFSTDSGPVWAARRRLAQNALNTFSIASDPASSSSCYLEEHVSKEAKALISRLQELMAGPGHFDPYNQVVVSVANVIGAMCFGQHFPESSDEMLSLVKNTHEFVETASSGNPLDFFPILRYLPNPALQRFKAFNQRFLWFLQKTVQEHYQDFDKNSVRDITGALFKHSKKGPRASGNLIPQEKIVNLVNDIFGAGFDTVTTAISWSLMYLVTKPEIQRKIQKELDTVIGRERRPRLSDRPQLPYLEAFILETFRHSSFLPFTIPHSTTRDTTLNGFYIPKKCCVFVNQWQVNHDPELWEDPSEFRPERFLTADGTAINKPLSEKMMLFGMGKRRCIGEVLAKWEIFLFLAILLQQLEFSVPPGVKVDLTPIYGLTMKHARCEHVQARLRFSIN

[17] = target: Cytochrome P450 2D6 (Homo sapiens, UniProt P10635); test: Inhibition of CYP2D6; type: ADME
[18] = Drug level in tumor of human BT474 cells xenografted in SCID mouse at 50 mg/kg, ip; type: ADME, organism-based, Neoplasm, BT-474; set-up: dose 50 mg/kg, route intraperitoneal; conditions: in vivo
[19] = system: Mus musculus; test: Inhibition of GSK3-beta phosphorylation in human BT474 cell xenografted SCID mouse at 25 mg/kg, ip; type: functional, organism-based; set-up: dose 25 mg/kg; conditions: BT-474
[20] = system: Mus musculus; test: Inhibition of GSK3-beta phosphorylation in human BT474 cell xenografted SCID mouse at 12.5 mg/kg, ip; type: functional, organism-based; set-up: dose 12.5 mg/kg; conditions: BT-474
[21] = system: Mus musculus; test: Inhibition of GSK3-beta phosphorylation in human BT474 cell xenografted SCID mouse at 50 mg/kg, ip; type: functional; conditions: BT-474, ip, route intraperitoneal

RAC-gamma serine/threonine-protein kinase, sequence (Q9Y243 whole entry): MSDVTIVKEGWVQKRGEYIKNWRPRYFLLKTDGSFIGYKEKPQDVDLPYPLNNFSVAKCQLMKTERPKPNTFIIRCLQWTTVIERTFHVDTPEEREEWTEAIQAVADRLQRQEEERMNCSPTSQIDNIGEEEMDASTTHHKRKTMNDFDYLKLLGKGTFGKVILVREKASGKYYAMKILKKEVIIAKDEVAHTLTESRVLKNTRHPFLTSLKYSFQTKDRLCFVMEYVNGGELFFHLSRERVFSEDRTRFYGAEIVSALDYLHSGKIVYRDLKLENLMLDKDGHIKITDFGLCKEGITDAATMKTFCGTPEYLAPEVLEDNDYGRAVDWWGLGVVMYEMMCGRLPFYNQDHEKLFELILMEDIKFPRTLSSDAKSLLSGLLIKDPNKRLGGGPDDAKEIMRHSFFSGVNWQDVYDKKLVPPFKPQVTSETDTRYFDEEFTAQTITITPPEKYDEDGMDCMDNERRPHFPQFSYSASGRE
Cytochrome P450 3A4, sequence (P08684 whole entry): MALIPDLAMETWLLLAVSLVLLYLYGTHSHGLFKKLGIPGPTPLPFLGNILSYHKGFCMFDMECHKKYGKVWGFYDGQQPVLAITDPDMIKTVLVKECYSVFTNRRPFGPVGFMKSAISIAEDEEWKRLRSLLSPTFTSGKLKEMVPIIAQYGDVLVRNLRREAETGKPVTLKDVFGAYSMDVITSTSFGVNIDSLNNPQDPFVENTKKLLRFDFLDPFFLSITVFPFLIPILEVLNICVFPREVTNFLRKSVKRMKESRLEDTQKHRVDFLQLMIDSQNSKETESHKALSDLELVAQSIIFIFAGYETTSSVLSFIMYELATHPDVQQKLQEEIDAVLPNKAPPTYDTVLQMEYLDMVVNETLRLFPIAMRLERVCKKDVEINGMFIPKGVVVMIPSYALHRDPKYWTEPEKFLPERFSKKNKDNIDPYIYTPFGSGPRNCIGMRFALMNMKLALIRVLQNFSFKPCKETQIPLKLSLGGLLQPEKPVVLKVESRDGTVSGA
RAC-beta serine/threonine-protein kinase, sequence (P31751 whole entry): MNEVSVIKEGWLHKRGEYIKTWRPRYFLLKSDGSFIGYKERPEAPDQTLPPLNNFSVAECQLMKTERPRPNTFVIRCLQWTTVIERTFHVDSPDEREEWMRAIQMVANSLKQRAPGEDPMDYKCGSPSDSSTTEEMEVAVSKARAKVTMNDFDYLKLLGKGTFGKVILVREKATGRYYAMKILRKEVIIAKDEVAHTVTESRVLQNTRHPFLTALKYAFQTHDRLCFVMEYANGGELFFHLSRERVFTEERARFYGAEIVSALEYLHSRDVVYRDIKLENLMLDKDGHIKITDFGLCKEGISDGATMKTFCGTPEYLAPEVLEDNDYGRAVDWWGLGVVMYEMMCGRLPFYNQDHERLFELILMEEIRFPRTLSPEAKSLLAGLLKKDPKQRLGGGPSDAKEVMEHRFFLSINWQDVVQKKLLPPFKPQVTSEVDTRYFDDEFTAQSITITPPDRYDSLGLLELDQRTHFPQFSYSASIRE
RAC-alpha serine/threonine-protein kinase, sequence (P31749 whole entry): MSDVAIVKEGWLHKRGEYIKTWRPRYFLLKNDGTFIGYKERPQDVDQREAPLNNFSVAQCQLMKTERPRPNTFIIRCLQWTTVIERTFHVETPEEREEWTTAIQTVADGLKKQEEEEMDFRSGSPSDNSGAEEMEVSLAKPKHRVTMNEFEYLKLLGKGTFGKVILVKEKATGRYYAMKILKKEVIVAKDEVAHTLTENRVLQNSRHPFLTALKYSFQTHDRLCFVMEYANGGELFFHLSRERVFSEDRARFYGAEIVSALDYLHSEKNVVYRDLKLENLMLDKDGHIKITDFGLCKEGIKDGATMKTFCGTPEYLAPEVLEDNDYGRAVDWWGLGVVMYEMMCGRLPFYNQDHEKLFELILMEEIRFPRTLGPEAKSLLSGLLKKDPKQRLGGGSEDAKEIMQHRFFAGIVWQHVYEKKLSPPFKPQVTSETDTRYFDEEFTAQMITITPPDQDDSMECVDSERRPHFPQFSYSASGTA
Cytochrome P450 2D6, sequence (P10635 whole entry): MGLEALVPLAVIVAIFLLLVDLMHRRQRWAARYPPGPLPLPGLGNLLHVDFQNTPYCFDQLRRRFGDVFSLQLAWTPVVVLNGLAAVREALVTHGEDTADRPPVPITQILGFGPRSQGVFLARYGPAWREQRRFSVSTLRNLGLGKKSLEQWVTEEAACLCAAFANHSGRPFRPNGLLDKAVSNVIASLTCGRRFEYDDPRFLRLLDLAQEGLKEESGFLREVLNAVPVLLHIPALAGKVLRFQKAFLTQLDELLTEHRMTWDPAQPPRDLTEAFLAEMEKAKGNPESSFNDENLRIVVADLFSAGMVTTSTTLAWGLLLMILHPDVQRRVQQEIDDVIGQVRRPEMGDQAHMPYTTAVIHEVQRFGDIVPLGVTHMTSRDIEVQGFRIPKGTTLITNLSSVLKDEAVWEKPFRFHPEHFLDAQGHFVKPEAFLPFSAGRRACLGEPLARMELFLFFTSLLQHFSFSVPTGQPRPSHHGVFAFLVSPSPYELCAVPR
Ribosomal protein S6 kinase beta-1, sequence (P23443 whole entry): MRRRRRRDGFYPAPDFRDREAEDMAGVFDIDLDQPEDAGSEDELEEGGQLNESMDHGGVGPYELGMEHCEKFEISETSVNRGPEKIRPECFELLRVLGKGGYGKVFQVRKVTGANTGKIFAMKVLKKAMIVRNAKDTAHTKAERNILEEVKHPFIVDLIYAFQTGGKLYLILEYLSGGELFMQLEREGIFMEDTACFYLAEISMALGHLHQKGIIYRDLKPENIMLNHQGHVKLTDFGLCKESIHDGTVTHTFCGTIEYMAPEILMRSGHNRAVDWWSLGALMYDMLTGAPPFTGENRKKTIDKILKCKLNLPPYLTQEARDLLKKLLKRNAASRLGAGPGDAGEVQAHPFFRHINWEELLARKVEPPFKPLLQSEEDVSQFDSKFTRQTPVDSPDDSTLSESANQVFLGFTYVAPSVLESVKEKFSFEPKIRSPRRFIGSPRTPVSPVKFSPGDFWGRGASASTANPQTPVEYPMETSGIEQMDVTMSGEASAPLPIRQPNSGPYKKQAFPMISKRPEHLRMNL
Rho-associated protein kinase 1, sequence (Q13464 whole entry): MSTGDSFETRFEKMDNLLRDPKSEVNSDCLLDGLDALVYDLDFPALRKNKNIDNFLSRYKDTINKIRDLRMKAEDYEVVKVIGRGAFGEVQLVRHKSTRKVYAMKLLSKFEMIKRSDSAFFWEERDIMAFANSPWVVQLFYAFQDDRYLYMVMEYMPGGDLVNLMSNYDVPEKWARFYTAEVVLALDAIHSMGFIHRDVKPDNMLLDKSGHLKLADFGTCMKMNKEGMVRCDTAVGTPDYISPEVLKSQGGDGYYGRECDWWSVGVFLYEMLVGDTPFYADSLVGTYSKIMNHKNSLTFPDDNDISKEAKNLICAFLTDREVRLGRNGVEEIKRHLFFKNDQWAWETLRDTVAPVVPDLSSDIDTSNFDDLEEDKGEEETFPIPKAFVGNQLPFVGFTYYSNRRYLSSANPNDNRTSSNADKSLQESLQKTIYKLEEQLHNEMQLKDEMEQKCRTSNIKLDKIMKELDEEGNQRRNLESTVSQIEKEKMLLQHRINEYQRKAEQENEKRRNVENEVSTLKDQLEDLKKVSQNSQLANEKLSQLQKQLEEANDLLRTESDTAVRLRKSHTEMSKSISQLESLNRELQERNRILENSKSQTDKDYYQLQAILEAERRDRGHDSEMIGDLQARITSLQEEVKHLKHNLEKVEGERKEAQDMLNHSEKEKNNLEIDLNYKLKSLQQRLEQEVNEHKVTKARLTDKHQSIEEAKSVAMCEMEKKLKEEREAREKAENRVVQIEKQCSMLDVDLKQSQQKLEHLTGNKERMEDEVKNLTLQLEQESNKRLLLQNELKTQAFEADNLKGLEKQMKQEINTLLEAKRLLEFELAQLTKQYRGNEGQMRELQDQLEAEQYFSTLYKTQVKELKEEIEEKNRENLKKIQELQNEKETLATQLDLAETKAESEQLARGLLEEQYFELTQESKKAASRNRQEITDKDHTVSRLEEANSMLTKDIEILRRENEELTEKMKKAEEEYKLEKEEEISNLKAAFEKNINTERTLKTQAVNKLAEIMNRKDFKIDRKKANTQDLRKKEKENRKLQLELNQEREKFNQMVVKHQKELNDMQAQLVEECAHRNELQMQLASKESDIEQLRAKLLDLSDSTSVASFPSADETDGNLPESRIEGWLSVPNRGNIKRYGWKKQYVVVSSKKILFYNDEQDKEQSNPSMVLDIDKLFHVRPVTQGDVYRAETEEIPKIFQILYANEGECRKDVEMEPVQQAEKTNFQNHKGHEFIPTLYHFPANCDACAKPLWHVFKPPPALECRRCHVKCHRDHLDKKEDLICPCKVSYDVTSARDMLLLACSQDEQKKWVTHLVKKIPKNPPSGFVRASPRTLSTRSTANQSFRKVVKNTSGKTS
Cytochrome P450 2C19, sequence (P33261 whole entry): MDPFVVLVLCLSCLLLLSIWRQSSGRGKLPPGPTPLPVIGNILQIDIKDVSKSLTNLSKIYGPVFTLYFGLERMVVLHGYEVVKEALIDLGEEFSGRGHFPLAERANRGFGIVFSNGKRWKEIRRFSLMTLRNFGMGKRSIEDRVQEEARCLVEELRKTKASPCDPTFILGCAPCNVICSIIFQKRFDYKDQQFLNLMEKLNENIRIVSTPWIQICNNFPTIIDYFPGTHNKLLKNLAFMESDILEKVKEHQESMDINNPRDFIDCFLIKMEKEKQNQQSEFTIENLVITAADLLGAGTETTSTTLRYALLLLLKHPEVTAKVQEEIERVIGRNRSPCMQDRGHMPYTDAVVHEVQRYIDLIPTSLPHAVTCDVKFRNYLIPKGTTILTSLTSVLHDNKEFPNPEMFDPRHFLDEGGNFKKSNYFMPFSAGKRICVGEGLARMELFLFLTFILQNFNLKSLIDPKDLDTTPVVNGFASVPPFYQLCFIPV

Cc1n[nH]c2cnc(-c3cc(OC[C@@H](N)Cc4c[nH]c5ccccc45)cnc3-c3ccoc3)nc12
IC50 [1]: 1 nM
IC50 [2]: 1300 nM
fraction unbound [3]: 0.155
IC50 [4]: 15 nM
solubility [5]: 205 µM (≈ 95.4 µg/mL)
IC50 [6]: 30 µM
IC50 [7]: 640 nM
IC50 [8]: 540 nM
IC50 [9]: 31 nM

Cc1n[nH]c2ccc(-c3cc(OC[C@@H](N)Cc4c[nH]c5ccccc45)cnc3-c3ccoc3)nc12
IC50 [1]: 12 nM
IC50 [2]: 100 nM
fraction unbound [3]: 0.069
solubility [5]: 225 µM (≈ 105 µg/mL)
IC50 [6]: 30 µM
IC50 [7]: 2100 nM
IC50 [8]: 830 nM

Cc1[nH]nc2ccc(-c3cc(OC[C@@H](N)Cc4c[nH]c5ccccc45)cnc3-c3ccoc3)cc12
IC50 [10]: 1580 nM
IC50 [1]: 1 nM
IC50 [2]: 50 nM
IC50 [11]: 2000 nM
fraction unbound [3]: 0.041
IC50 [12]: 31 nM
IC50 [13]: 7 nM
IC50 [4]: 1 nM
solubility [5]: 52 µM (≈ 24.1 µg/mL)
IC50 [14]: 25 nM
IC50 [15]: 1 nM
IC50 [16]: 50 µM
IC50 [17]: 5 µM
IC50 [6]: 5.5 µM
IC50 [7]: 340 nM
IC50 [8]: 190 nM
IC50 [9]: 12 nM

Cc1n[nH]c2cnc(-c3cc(OC[C@@H](N)Cc4c[nH]c5ccccc45)cnc3-c3ccoc3)cc12
IC50 [1]: 1 nM
IC50 [2]: 16 nM
fraction unbound [3]: 0.057
IC50 [4]: 1 nM
IC50 [6]: 6.5 µM
IC50 [7]: 750 nM
IC50 [8]: 230 nM
IC50 [9]: 6 nM

Cc1n[nH]c2ncc(-c3cc(OC[C@@H](N)Cc4c[nH]c5ccccc45)cnc3-c3ccoc3)nc12
IC50 [1]: 2 nM
IC50 [2]: 400 nM
fraction unbound [3]: 0.091
Drug uptake [18]: 3798 ng/mL
IC50 [4]: 10 nM
solubility [5]: 200 µM (≈ 93.1 µg/mL)
Activity [19]: inactive
Activity [20]: inactive
IC50 [6]: 14.3 µM
IC50 [7]: 370 nM
IC50 [8]: 96 nM
IC50 [9]: 39 nM
inhibition in vivo at 50 mg/kg [21]: 80%

Cc1n[nH]c2ncc(-c3cc(OC[C@@H](N)Cc4c[nH]c5ccccc45)cnc3-c3ccoc3)cc12
IC50 [1]: 1 nM
IC50 [2]: 200 nM
fraction unbound [3]: 0.047
solubility [5]: 108 µM (≈ 50.2 µg/mL)
IC50 [6]: 6.6 µM
IC50 [7]: 300 nM
IC50 [8]: 85 nM
